PMC5634933 (Biochemistry, 2017)
Read-outs that look alike come from different tables or passages of the source. Each block holds one compound with its values, some of them ahead of it.

How the values were obtained:
Assay type in all cases: biochemical
I260M pol β = I260M pol β (Homo sapiens, UniProt P06746, I260M); settings: for Kd / kpol: 37 °C
WT pol β [1] = molecular target: WT pol β (Homo sapiens, UniProt P06746); settings: WT; for Kd / kpol: 37 °C
WT pol β [2] = settings: D kpol WT analogue/D kpol I260M analogue
[3] = I260M, A-G: misincorporation of dGTP (analogue) opposite template A
[4] = A-G: misincorporation of dGTP (analogue) opposite template A
[5] = I260M, A-T: correct incorporation of dTTP (analogue) opposite template A
[6] = A-T: correct incorporation of dTTP (analogue) opposite template A

- Efficiency (kpol/Kd) (I260M pol β; [3]): 18 ± 9.1 M⁻¹ s⁻¹
- Kd (I260M pol β; [3]): 795 ± 373 µM
- kpol (I260M pol β; [3]): 0.014 ± 0.003 s⁻¹
- Efficiency (kpol/Kd) (WT pol β [1]; [4]): 22 ± 8.5 M⁻¹ s⁻¹
- Kd (WT pol β [1]; [4]): 626 ± 220 µM
- kpol (WT pol β [1]; [4]): 0.014 ± 0.002 s⁻¹
Compound: Nc1nc2c(ncn2[C@H]2C[C@H](O)[C@@H](COP(=O)(O)OP(=O)(O)OP(=O)(O)O)O2)c(=O)[nH]1 [A-G O, dGTP, reference compound]

- Efficiency (kpol/Kd) (I260M pol β; [5]): 60000 ± 20000 M⁻¹ s⁻¹
- Kd (I260M pol β; [5]): 5 ± 1.5 µM
- kpol (I260M pol β; [5]): 0.30 ± 0.01 s⁻¹
- Efficiency (kpol/Kd) (WT pol β [1]; [6]): 120000 ± 30000 M⁻¹ s⁻¹
- Kd (WT pol β [1]; [6]): 6.7 ± 1.8 µM
- kpol (WT pol β [1]; [6]): 0.80 ± 0.10 s⁻¹
Compound: Cc1cn([C@H]2C[C@H](O)[C@@H](COP(=O)(O)OP(=O)(O)CP(=O)(O)O)O2)c(=O)[nH]c1=O [A-T CH2, β,γ-CH2 dTTP]

- Efficiency (kpol/Kd) (I260M pol β; [5]): 200000 ± 80000 M⁻¹ s⁻¹
- Kd (I260M pol β; [5]): 40.1 ± 15.5 µM
- kpol (I260M pol β; [5]): 7.90 ± 1.30 s⁻¹
- kpol (I260M pol β; I260M, A-T: correct incorporation of dTTP (analogue) opposite template A, listed as dTTP): 7.9 s⁻¹
- Kd of I260M relative to WT (fold higher) (I260M pol β; correct parent dTTP): 4 fold
- Efficiency (kpol/Kd) (WT pol β [1]; [6]): 1.22e+06 ± 140000 M⁻¹ s⁻¹
- Kd (WT pol β [1]; [6]): 10.5 ± 1.1 µM
- kpol (WT pol β [1]; [6]): 12.8 ± 0.60 s⁻¹
- kpol (WT pol β [1]; A-T: correct incorporation of dTTP (analogue) opposite template A, listed as dTTP): 12.8 s⁻¹
Compound: Cc1cn([C@H]2C[C@H](O)[C@@H](COP(=O)(O)OP(=O)(O)OP(=O)(O)O)O2)c(=O)[nH]c1=O [A-T O, dTTP, reference compound]

- D kpol (analogue/parent) (I260M pol β; I260M, D kpol analogue/D kpol parent): 1.0
- F (analogue/parent) (I260M pol β; I260M, F analogue/F parent): 0.6
- F analogue (fidelity) (I260M pol β; I260M, dTTP (correct) vs dGTP (incorrect) analogue opposite template A): 7060
- D kpol(c/i) analogue (I260M pol β; I260M, discrimination at kpol = kpol(correct)/kpol (incorrect)): 551.7
- I260M/WT analogue (I260M pol β; [F I260M(analogue)]/[F WT (analogue)]): 0.3
- I260M/WT (analogue/parent) (I260M pol β; [F I260M(analogue/parent)]/[F WT (analogue/parent)]): 1.3
- D kpol (analogue/parent) (WT pol β [1]; D kpol analogue/D kpol parent): 0.9
- F (analogue/parent) (WT pol β [1]; F analogue/F parent): 0.5
- F analogue (fidelity) (WT pol β [1]; dTTP (correct) vs dGTP (incorrect) analogue opposite template A): 27818
- D kpol(c/i) analogue (WT pol β [1]; discrimination at kpol = kpol(correct)/kpol (incorrect)): 842.9
Compound: CHCl
- D kpol analogue WT/I260M (WT pol β [2]): 1.5
